Test in all cases: NCI anticancer screen, dose series, 48 h
Experiment [1] relates to NCI-H460.
For experiment [2], the system named is HOP-92.
The test system of experiment [3] is NCI-H23.
The subject of experiment [4] is SW-620.
For experiment [5], the system named is U-251.
Experiment [6] deals with M14.
For experiment [7], the system named is CAKI-1.
The test system of experiment [8] is OVCAR-8.
Experiment [9] relates to HCC 2998.
Experiment [10] has as its system SK-MEL-28.
The subject of experiment [11] is SK-MEL-5.
Experiment [12] has as its system SK-OV-3.
In experiment [13] the test system is RXF 393.
For experiment [14], the system named is SNB-75.
The test system of experiment [15] is SK-MEL-2.
Experiment [16] concerns A498.

Each structure is given as a SMILES string.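 Step 1: Grow cells in 96-well plates. Step 2: Expose to compound for 48 hours at 5 concentrations. Step 3: Interpolate endpoints linearly; if unreached, use highest concentration. At the GI50, growth is halved.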 Active and inactive are the calls of the source. No stated cut-off is given here; in the data, active = GI50 up to about 1.1 µM and inactive = higher.

With `CC(=O)NNc1nc(C)c(C(/C=C/c2ccc(Cl)cc2)=N\N=C(N)N)s1`, the GI50 in experiment [1] was > 100 µM (inactive); in experiment [2], > 100 µM (inactive); in experiment [3], > 100 µM (inactive); in [4], > 100 µM (inactive); in experiment [5], > 100 µM (inactive); in experiment [6], 82.6 µM (inactive). Also, the GI50 in experiment [7], in [8], in [9], in experiment [10], in [11] and in experiment [12] was > 100 µM (inactive) in each case. Moreover, the GI50 in [13] and in experiment [14] was > 100 µM (inactive) each time.

For the compound `O=C1CSc2cc([N+](=O)[O-])ccc2N1`, the GI50 in [1], in experiment [15], in experiment [3], in experiment [4], in experiment [5] and in [6] was > 100 µM (inactive) throughout. The GI50 in experiment [7], in [8], in [9], in experiment [10], in [16] and in experiment [11] was > 100 µM (inactive) each time. In addition, the GI50 is > 100 µM (inactive) in experiment [12], > 100 µM (inactive) in experiment [13] and 22.1 µM (inactive) in experiment [14].

As for `N#CC(C(=O)CCC(=O)Nc1ccc(Cl)cc1)c1ccc(Cl)cc1` (centres undefined), the GI50 in experiment [1], in experiment [15], in experiment [2], in experiment [3], in experiment [4] and in experiment [5] was > 100 µM (inactive) each time. The GI50 in [6] is 52 µM (inactive); in [7] it was 92.5 µM (inactive); in [8], > 100 µM (inactive); in experiment [9] it was > 100 µM (inactive); in [16] it was > 100 µM (inactive); in experiment [11], > 100 µM (inactive). In addition, in experiment [12], the GI50 was > 100 µM (inactive).

Consider `CCOC(=O)C12CCCC1(O)N(NC(=O)c1cccc(Cl)c1)C(C)=C2C(=O)OC` (centres undefined), for which the GI50 in experiment [1], in [15], in experiment [4], in experiment [5], in experiment [6] and in experiment [7] was > 100 µM (inactive) throughout. For the same compound, the GI50 in [8], in [9], in [10], in experiment [16], in experiment [11] and in experiment [12] was > 100 µM (inactive) in each case. In addition, the GI50 in [13] was 46.5 µM (inactive); in experiment [14], 34.5 µM (inactive).

Consider `CN(C(=O)C12C3C4C1C1C2C3C41C(=O)C(C)(C)C)C(C)(C)C` (centres undefined), for which the GI50 in experiment [15], in experiment [3], in [4], in [5], in [6] and in experiment [7] was > 100 µM (inactive) in each case. Besides, the GI50 in experiment [8], in experiment [9], in experiment [10], in [16], in experiment [11] and in experiment [12] was > 100 µM (inactive) throughout. The GI50 in experiment [14] was 76 µM (inactive).

In the case of `CCN(CC)CC(=O)NC1c2ccccc2Oc2c(C)cccc21` (centres undefined), the GI50 in [1], in experiment [3], in experiment [4], in [6], in experiment [8] and in [9] was > 100 µM (inactive) each time. Also, the GI50 in experiment [10] was > 100 µM (inactive); in experiment [11], 69.5 µM (inactive); in [12], > 100 µM (inactive); in [13], 38.7 µM (inactive); in [14], 49.5 µM (inactive).

Consider `CC(=O)C1CCN(c2ccccc2)C1` (centres undefined), for which the GI50 in experiment [1], in [15], in experiment [2], in [3], in experiment [4] and in [5] was > 100 µM (inactive) each time. Besides, the GI50 in [6], in experiment [7], in experiment [8], in experiment [10], in [16] and in experiment [11] was > 100 µM (inactive) each time. Also, the GI50 in [12], in experiment [13] and in experiment [14] was > 100 µM (inactive) each time.

Regarding `N#CC12Cc3ccc4c(c3-c3cccc(c31)CCN2C(=O)c1ccccc1)OCO4` (centres undefined), the GI50 in experiment [2] was 36.2 µM (inactive); in experiment [3], > 100 µM (inactive); in experiment [4], > 100 µM (inactive); in [5], > 100 µM (inactive); in experiment [6] it was > 100 µM (inactive); in experiment [8], > 100 µM (inactive). Also, the GI50 was > 100 µM (inactive) in experiment [9]; > 100 µM (inactive) in experiment [10]; 68.4 µM (inactive) in experiment [16]; > 100 µM (inactive) in experiment [11]; > 100 µM (inactive) in [12]; > 100 µM (inactive) in experiment [13]. In addition, the GI50 in experiment [14] is 34.7 µM (inactive).

Consider `O=CC1=CCC2c3[nH]c4ccccc4c3CCN2C1` (centres undefined), for which the GI50 in [1] is 139 µM (inactive); in [15], 90.8 µM (inactive); in [2], 111 µM (inactive); in [3] it was 83 µM (inactive); in experiment [4] it was 122 µM (inactive); in experiment [5], 80 µM (inactive). In addition, the GI50 in experiment [7] was > 396 µM (inactive); in experiment [8], 139 µM (inactive); in experiment [9] it was 103 µM (inactive); in experiment [10] it was 90.6 µM (inactive); in experiment [11] it was 114 µM (inactive); in experiment [12] it was 132 µM (inactive). Moreover, the GI50 in experiment [13] was 182 µM (inactive).

`COc1cc2cc3c4c(cc(OC)c(OC)c4c2cc1OC)CCN3`: the GI50 was 21.5 µM (inactive) in experiment [1]; 22.1 µM (inactive) in experiment [15]; 20.8 µM (inactive) in [2]; 92 µM (inactive) in experiment [3]; 21.1 µM (inactive) in experiment [4]; > 100 µM (inactive) in experiment [5]. In addition, the GI50 in [6] is 32.9 µM (inactive); in [7] it was 67.1 µM (inactive); in experiment [8] it was 76.4 µM (inactive); in experiment [9] it was 72.8 µM (inactive); in experiment [10] it was 69.8 µM (inactive); in [11], 23.8 µM (inactive). Further, the GI50 was > 100 µM (inactive) in [12], 25.1 µM (inactive) in experiment [13] and 44 µM (inactive) in experiment [14].

For `CC#CC(=O)Nc1ccccc1CC(c1c[nH]c2ccccc12)c1c[nH]c2ccccc12`, the GI50 in [15] was 18.2 µM (inactive); in [3], 18.8 µM (inactive); in experiment [4] it was 16.2 µM (inactive); in experiment [6], 15 µM (inactive); in experiment [7], 20.6 µM (inactive); in experiment [8], 19.1 µM (inactive). Besides, the GI50 in experiment [9] was 18.3 µM (inactive); in experiment [10] it was 15.7 µM (inactive); in experiment [11] it was 14.2 µM (inactive); in [12], 18.8 µM (inactive); in experiment [13], 7.13 µM (inactive); in [14], 5.51 µM (inactive).

In the case of `O=S(O)CCCCSSCCCCS(=O)(=O)S`, the GI50 in experiment [1] was 64.3 µM (inactive); in experiment [15], 35.7 µM (inactive); in experiment [3], 53.6 µM (inactive); in experiment [4], 37.7 µM (inactive); in experiment [5], > 100 µM (inactive); in experiment [6], 15.7 µM (inactive). Besides, the GI50 in experiment [7] was > 100 µM (inactive); in experiment [8], 37.8 µM (inactive); in experiment [9], > 100 µM (inactive); in experiment [10], 27 µM (inactive); in experiment [16] it was > 100 µM (inactive); in [11] it was 14.2 µM (inactive). For the same compound, the GI50 in experiment [12] was > 100 µM (inactive); in experiment [13], 43.3 µM (inactive); in [14], 10.9 µM (inactive).

Consider `COC(=O)C1CCC2(C)[C@H](CCC3O[C@]32C)[C@@]1(C)CC(=O)c1ccoc1` (some centres undefined), for which the GI50 in experiment [1] was 72.9 µM (inactive); in experiment [3], 71 µM (inactive); in experiment [4], > 100 µM (inactive); in [5], 36.6 µM (inactive); in experiment [6], > 100 µM (inactive); in [7], > 100 µM (inactive). Besides, the GI50 is > 100 µM (inactive) in [8]; > 100 µM (inactive) in [9]; > 100 µM (inactive) in [10]; 43 µM (inactive) in experiment [16]; 66.1 µM (inactive) in experiment [11]; 0.0406 µM (active) in experiment [12]. The GI50 in [13] is > 100 µM (inactive).

`COC(=O)CC(C(C(C)=O)C(=O)OCc1ccccc1)N1C(=O)OCC1c1ccccc1` (centres undefined): the GI50 is 75.2 µM (inactive) in [1]; > 100 µM (inactive) in experiment [15]; > 100 µM (inactive) in experiment [3]; > 100 µM (inactive) in [4]; 65.2 µM (inactive) in experiment [5]; > 100 µM (inactive) in experiment [6]. Besides, the GI50 in experiment [8] was > 100 µM (inactive); in experiment [9] it was > 100 µM (inactive); in experiment [10], > 100 µM (inactive); in [16] it was 67.9 µM (inactive); in experiment [11], 47.8 µM (inactive); in [13], > 100 µM (inactive). Further, the GI50 in [14] is 15.5 µM (inactive).
